Assay results published in ChEMBL document CHEMBL4808173, “Discovery of Novel Benzimidazole and Indazole Analogues as Tubulin Polymerization Inhibitors with Potent Anticancer Activities” (J Med Chem, 2021).
Activity calls are given as the source filed them. No cut-off for these calls is given here.

How the values were obtained:
B16-F10 [1] = assay: Antitumor activity against mouse B16-F10 cells inoculated in BALB/c mouse assessed as tumor growth inhibition at 15 mg/kg, ip qd for 14 days by caliper method relative to control; format: functional; conditions: 336 h, time 14 day, read-out: TGI
[2] = Acute toxicity in BALB/c mouse inoculated with mouse B16-F10 cells assessed as effect on liver at 15 to 30 mg/kg, ip qd for 14 days by hematoxylin and eosin staining based analysis; format: organism-based; conditions: in vivo, 336 h, dose 15-30 mg/kg, time 14 day
MCF7 [3] = assay: Induction of apoptosis in human MCF7 cells assessed as live cells at 5 nM measured after 48 hrs by annexinV-FITC/propidium iodide staining based flow cytometry (reference value: 88.5 %); format: functional
MCF7 [4] = assay: Cell cycle analysis in human MCF7 cells assessed as accumulation at G1 phase at 10 nM measured after 48 hrs by RnaseA/propidium iodide staining based flow cytometry (reference value: 53.68 %); format: functional
MCF7 [5] = assay: Induction of apoptosis in human MCF7 cells assessed as necrotic cells at 5 nM measured after 48 hrs by annexinV-FITC/propidium iodide staining based flow cytometry (reference value: 2.62 %); format: functional
A549 = assay: Antiproliferative activity against human A549 cells assessed as reduction in cell viability measured after 48 hrs by MTT assay; format: functional, cell-based
[6] = Binding affinity to immobilized pig brain tubulin assessed as equilibrium dissociation constant by SPR assay; format: tissue-based, Sus scrofa
[7] = Acute toxicity in BALB/c mouse inoculated with mouse B16-F10 cells assessed as effect on kidney at 15 to 30 mg/kg, ip qd for 14 days by hematoxylin and eosin staining based analysis; format: organism-based; conditions: in vivo, 336 h, dose 15-30 mg/kg, time 14 day
MCF7 [8] = assay: Induction of apoptosis in human MCF7 cells assessed as necrotic cells at 10 nM measured after 48 hrs by annexinV-FITC/propidium iodide staining based flow cytometry (reference value: 2.62 %); format: functional
MCF7 [9] = assay: Cell cycle analysis in human MCF7 cells assessed as accumulation at G2 phase at 20 nM measured after 48 hrs by RnaseA/propidium iodide staining based flow cytometry (reference value: 17.03 %); format: functional
HeLa = assay: Antiproliferative activity against human HeLa cells assessed as reduction in cell viability measured after 48 hrs by MTT assay; format: functional, cell-based
B16-F10 [10] = assay: Disruption of microtubule network in mouse […] cells measured after 6 hrs by DAPI staining based immunofluorescence microscopic assay; format: cell-based; conditions: dose 10-40 nM
A2780/Taxol [11] = assay: Antiproliferative activity against human A2780T cells assessed as reduction in cell viability measured after 48 hrs by MTT assay; format: functional, cell-based
MCF7 [12] = assay: Induction of apoptosis in human MCF7 cells assessed as early apoptotic cells at 10 nM measured after 48 hrs by annexinV-FITC/propidium iodide staining based flow cytometry (reference value: 1.89 %); format: functional
A2780S = assay: Antiproliferative activity against human A2780S cells assessed as reduction in cell viability measured after 48 hrs by MTT assay; format: functional, cell-based
MCF7 [13] = assay: Cell cycle analysis in human MCF7 cells assessed as accumulation at G2 phase at 5 nM measured after 48 hrs by RnaseA/propidium iodide staining based flow cytometry (reference value: 17.03 %); format: functional
MCF7 [14] = assay: Induction of apoptosis in human MCF7 cells assessed as live cells at 10 nM measured after 48 hrs by annexinV-FITC/propidium iodide staining based flow cytometry (reference value: 88.5 %); format: functional
MCF7 [15] = assay: Induction of apoptosis in human MCF7 cells assessed as early apoptotic cells at 20 nM measured after 48 hrs by annexinV-FITC/propidium iodide staining based flow cytometry (reference value: 1.89 %); format: functional
[16] = (§1) Inhibition of pig brain tubulin polymerization by spectrophotometric method; format: tissue-based, Sus scrofa
Sus scrofa = species: Sus scrofa; assay: as §1; format: tissue-based
MCF7 [17] = assay: Induction of apoptosis in human MCF7 cells assessed as early apoptotic cells at 5 nM measured after 48 hrs by annexinV-FITC/propidium iodide staining based flow cytometry (reference value: 1.89 %); format: functional
B16-F10 [18] = assay: Antimigratory activity in mouse B16-F10 cells assessed as inhibition of cell migration measured after 24 hrs; format: functional, cell-based; conditions: dose 5-20 nM
MCF7 [19] = assay: Cell cycle analysis in human MCF7 cells assessed as accumulation at G1 phase at 5 nM measured after 48 hrs by RnaseA/propidium iodide staining based flow cytometry (reference value: 53.68 %); format: functional
B16-F10 [20] = assay: Antiproliferative activity against mouse B16-F10 cells assessed as reduction in cell viability measured after 48 hrs by MTT assay; format: functional, cell-based
MCF7 [21] = assay: Antiproliferative activity against human MCF7 cells assessed as reduction in cell viability measured after 48 hrs by MTT assay; format: functional, cell-based
MCF7 [22] = assay: Cell cycle analysis in human MCF7 cells assessed as accumulation at G1 phase at 20 nM measured after 48 hrs by RnaseA/propidium iodide staining based flow cytometry (reference value: 53.68 %); format: functional
B16-F10 [23] = assay: Antimigratory activity in mouse B16-F10 cells assessed as inhibition of cell migration by measuring wound closure at 5 nM measured after 24 hrs (reference value: 51.92 +/- 2.02 %); format: functional; set-up: scale not given: the % may be the effect or the level left
B16-F10 [24] = assay: Antimigratory activity in mouse B16-F10 cells assessed as inhibition of cell migration by measuring wound closure at 20 nM measured after 24 hrs (reference value: 51.92 +/- 2.02 %); format: functional; set-up: scale not given: the % may be the effect or the level left
B16-F10 [25] = assay: Antitumor activity against mouse B16-F10 cells inoculated in BALB/c mouse assessed as tumor growth inhibition at 30 mg/kg, ip qd for 14 days by caliper method relative to control; format: functional; conditions: 336 h, time 14 day, read-out: TGI
MCF7 [26] = assay: Cell cycle analysis in human MCF7 cells assessed as accumulation at S phase at 5 nM measured after 48 hrs by RnaseA/propidium iodide staining based flow cytometry (reference value: 27.46 %); format: functional
MCF7 [27] = assay: Inhibition of colony formation in human MCF7 cells assessed as decrease in colonies measured after 24 hrs by photographic imaging analysis; format: functional, cell-based; conditions: dose 0.05-5 µM
MCF7 [28] = assay: Induction of apoptosis in human MCF7 cells assessed as necrotic cells at 20 nM measured after 48 hrs by annexinV-FITC/propidium iodide staining based flow cytometry (reference value: 2.62 %); format: functional
MCF7 [29] = assay: Induction of apoptosis in human MCF7 cells assessed as late apoptotic cells at 20 nM measured after 48 hrs by annexinV-FITC/propidium iodide staining based flow cytometry (reference value: 5.99 %); format: functional
B16-F10 [30] = assay: Antimigratory activity in mouse B16-F10 cells assessed as inhibition of cell migration by measuring wound closure at 10 nM measured after 24 hrs (reference value: 51.92 +/- 2.02 %); format: functional; set-up: scale not given: the % may be the effect or the level left
MCF7 [31] = assay: Cell cycle analysis in human MCF7 cells assessed as accumulation at G2 phase at 10 nM measured after 48 hrs by RnaseA/propidium iodide staining based flow cytometry (reference value: 17.03 %); format: functional
A2780/Taxol [32] = assay: Inhibition of colony formation in human A2780T cells assessed as decrease in colonies measured after 24 hrs by photographic imaging analysis; format: functional, cell-based; conditions: dose 10-100 nM
[33] = Acute toxicity in BALB/c mouse inoculated with mouse B16-F10 cells assessed as effect on body weight at 15 mg/kg, ip qd for 14 days; format: organism-based; conditions: in vivo, 336 h, time 14 day
MCF7 [34] = assay: Induction of apoptosis in human MCF7 cells assessed as late apoptotic cells at 10 nM measured after 48 hrs by annexinV-FITC/propidium iodide staining based flow cytometry (reference value: 5.99 %); format: functional
MCF7 [35] = assay: Cell cycle analysis in human MCF7 cells assessed as accumulation at S phase at 10 nM measured after 48 hrs by RnaseA/propidium iodide staining based flow cytometry (reference value: 27.46 %); format: functional
MCF7 [36] = assay: Cell cycle analysis in human MCF7 cells assessed as accumulation at S phase at 20 nM measured after 48 hrs by RnaseA/propidium iodide staining based flow cytometry (reference value: 27.46 %); format: functional
[37] = Resistance index, ratio of IC50 for antiproliferative activity against human A2780T cells assessed as reduction in cell viability measured after 48 hrs by MTT assay to IC50 for antiproliferative activity against human A2780S cells assessed as reduction in cell viability measured after 48 hrs by MTT assay; format: functional
MCF7 [38] = assay: Induction of apoptosis in human MCF7 cells assessed as late apoptotic cells at 5 nM measured after 48 hrs by annexinV-FITC/propidium iodide staining based flow cytometry (reference value: 5.99 %); format: functional
MCF7 [39] = assay: Induction of apoptosis in human MCF7 cells assessed as live cells at 20 nM measured after 48 hrs by annexinV-FITC/propidium iodide staining based flow cytometry (reference value: 88.5 %); format: functional
B16-F10 [40] = assay: Antitumor activity against mouse B16-F10 cells inoculated in BALB/c mouse assessed as tumor growth inhibition at 10 mg/kg, ip qd for 14 days by caliper method relative to control; format: functional; conditions: 336 h, time 14 day, read-out: TGI
A2780/Taxol [41] = assay: Inhibition of colony formation in human A2780T cells assessed as decrease in colonies at 100 nM measured after 24 hrs by photographic imaging analysis; format: functional, cell-based

For COc1cc(-c2cccc3[nH]c(-c4cccc5c4ccn5C)nc23)cc(OC)c1OC, the inhibition in vivo at 15 mg/kg (B16-F10 [1]) was 78.7%, the Activity [2] was “Non-Toxic” and the Activity (MCF7 [3]) was 83.7%. The Activity (MCF7 [4]) was 13.1%, the Activity (MCF7 [5]) was 4.26% and the Activity (A549) was “Dose-Dependent Effect”. For the same molecule, the IC50 (A549; A549, 48 h) was 85 nM, the Kd [6] was 12700 nM and the Activity [7] was “Non-Toxic”. The Activity (MCF7 [8]) was 2.12%, the Activity (MCF7 [9]) was 62.16% and the Activity (HeLa) was “Dose-Dependent Effect”. For the same molecule, the IC50 (HeLa) was 68 nM, the Activity (B16-F10 [10]) was “Dose-Dependent Effect” and the IC50 (A2780/Taxol [11]) was 9.7 nM. For the same molecule, the Activity (MCF7 [12]) was 5.12%, the IC50 (A2780S) was 6.2 nM and the Activity (MCF7 [13]) was 13.41%. It also gave an Activity (MCF7 [14]) of 84.4%, an Activity (MCF7 [15]) of 4.69% and an IC50 [16] of 2520 nM. For the same molecule, the inhibition (Sus scrofa) was “Dose-Dependent Effect”, the Activity (MCF7 [17]) was 2.98% and the inhibition (B16-F10 [18]) was “Dose-Dependent Effect”. For the same molecule, the Activity (MCF7 [19]) was 62.06%, the Activity (B16-F10 [20]) was “Dose-Dependent Effect” and the IC50 (B16-F10 [20]; B16-F10, 48 h) was 29 nM. For the same molecule, the Activity (MCF7 [21]) was “Dose-Dependent Effect”, the IC50 (MCF7 [21]; MCF7, 48 h) was 18 nM and the Activity (MCF7 [22]) was 17.16%. For the same molecule, the Activity (B16-F10 [23]) was 29.42%, the Activity (B16-F10 [24]) was 6.6% and the inhibition in vivo at 30 mg/kg (B16-F10 [25]) was 84.3%. For the same molecule, the Activity (MCF7 [26]) was 23.09%, the inhibition (MCF7 [27]) was “Dose-Dependent Effect” and the Activity (MCF7 [28]) was 2.14%. The Activity (MCF7 [29]) was 34.3%, the Activity (B16-F10 [30]) was 15.68% and the Activity (MCF7 [31]) was 62.8%. The inhibition (A2780/Taxol [32]) was “Dose-Dependent Effect”, the Activity [33] was “Non-Toxic” and the Activity (MCF7 [34]) was 28.4%. The Activity (MCF7 [35]) was 22.93%, the Activity (MCF7 [36]) was 19.63% and the “Ratio IC50” value [37] was 1.6. The Activity (MCF7 [38]) was 9.04% and the Activity (MCF7 [39]) was 58.9%.
Molecule CC(=O)O[C@H]1C(=O)[C@@]2(C)[C@H]([C@H](OC(=O)c3ccccc3)[C@]3(O)C[C@H](OC(=O)[C@H](O)[C@@H](NC(=O)c4ccccc4)c4ccccc4)C(C)=C1C3(C)C)[C@]1(OC(C)=O)CO[C@@H]1C[C@@H]2O [PACLITAXEL] has an IC50 (A2780/Taxol [11]) of 3160 nM, an IC50 (A2780S) of 7.5 nM and an inhibition in vivo at 10 mg/kg (B16-F10 [40]) of 88.7%. For the same molecule, the inhibition (A2780/Taxol [41]) was “inactive” and the “Ratio IC50” value [37] was 421.8.
